The structures appear in SMILES notation.

This assay addresses mutant PAN-I38T endonuclease (Influenza A virus, UniProt P03433, I38T). The class given is biochemical, influenza A type virus (H1N1).

On to `C[C@]12C=CC(=O)N[C@@H]1CC[C@@H]1[C@@H]2CC[C@]2(C)[C@@H](C(=O)Nc3cc(C(F)(F)F)ccc3C(F)(F)F)CC[C@@H]12` [dutasteride], for which the “inhibition of the endonuclease activity of PAN-I38T (in words)” value (shortened to “inhibition”) is recorded as “no inhibition”.

Take `CS(=O)(=O)c1cccc(C[C@H](NC(=O)c2c(Cl)cc3c(c2Cl)CCN(C(=O)c2ccc4ccoc4c2)C3)C(=O)O)c1` [lifitegrast]: the “inhibition” value is on record as “inhibitory effect”.

Take `O=C1[C@@H]2[C@H]3CC[C@H](C3)[C@@H]2C(=O)N1C[C@@H]1CCCC[C@H]1CN1CCN(c2nsc3ccccc23)CC1` [lurasidone]: the “inhibition” value is reported as “no inhibition”.

With `CO[C@H]1/C=C/O[C@@]2(C)Oc3c(C)c(O)c4c(O)c(c5c(nc6cc(C)ccn65)c4c3C2=O)NC(=O)/C(C)=C\C=C\[C@H](C)[C@H](O)[C@@H](C)[C@@H](O)[C@@H](C)[C@H](OC(C)=O)[C@@H]1C` [rifaximin], the “inhibition” value was “no inhibition”.

On to `CC(C)(C)NC(=O)[C@@H]1C[C@@H]2CCCC[C@@H]2CN1C[C@@H](O)[C@H](Cc1ccccc1)NC(=O)[C@H](CC(N)=O)NC(=O)c1ccc2ccccc2n1` [saquinavir], for which the “inhibition” value is reported as “no inhibition”.
